Patent publication US9334276B2, “Forms and salts of a dihydropyrrolo[1,2c]imidazolyl aldosterone synthase or aromatase inhibitor” (Novartis AG, priority 2012, dated 2016)
Where two headings read alike, the source gives them in different places.

Assays:
[1] = Hygroscopicity: sorption/desorption isotherms, VTI 100 humidity microbalance; type: physicochemical; details: for Moisture gain (water uptake): 25° C.
Method: Sorption/desorption isotherms were measured using the VTI 100 humidity microbalance (VTI Corporation, Hialeah, Fla., USA). Measurements were carried out at 25° C. Samples were dried under N2 flow at 25° C.

[2] = Determination of solubility (excess solids equilibrated over 24 hours at 25° C.); type: physicochemical; details: thermodynamic from solid
Method: Excess solids were equilibrated in each solvent for over 24 hours at 25° C.±0.1. Concentration in supernatant was measured by gravimetry for organic solvents and by HPLC from aqueous solvents and propylene glycol.

Row | SMILES | Moisture gain (water uptake) ([1]; 0% r.h.) [%] | Moisture gain (water uptake) ([1]; 5% r.h.) [%] | Moisture gain (water uptake) ([1]; 25% r.h.) [%] | Moisture gain (water uptake) ([1]; 50% r.h.) [%] | Moisture gain (water uptake) ([1]; 75% r.h.) [%] | Moisture gain (water uptake) ([1]; 85% r.h.) [%] | Moisture gain (water uptake) ([1]; 95% r.h.) [%] | Hygroscopicity (in words) ([1]; in contrast to the phosphate and nitrate salts) | Moisture gain (water uptake) ([1]; 5% r.h., listed as Phosphate) [%] | Moisture gain (water uptake) ([1]; 5% r.h., listed as phosphate salt) [%] | Moisture gain (water uptake) ([1]; 75% r.h., listed as Phosphate) [%] | Moisture gain (water uptake) ([1]; 75% r.h., listed as phosphate salt) [%] | Moisture gain (water uptake) ([1]; 5% r.h., listed as Nitrate) [%] | solubility ([2]; organic solvent or mixture, Ethyl Acetate, read-out: Solubility profile) [mg/mL] | solubility ([2]; simulated gastric fluid, pH 1, read-out: Solubility profile) [mg/mL]
1 | Cl.N#Cc1ccc([C@H]2CCc3cncn32)c(F)c1 [HCl salt, HCl salt of 4-(R)-(6,7-dihydro-5H-pyrrolo[1,2-c]imidazol-5-yl)-3-fluoro-benzonitrile, reference compound] | 0.0 | 0.0 | 0.5 | 0.2 | 0.2 | 3.3 | 23.6 | excessive hygroscopicity |  |  |  |  |  |  | 
2 | N#Cc1ccc([C@H]2CCc3cncn32)c(F)c1.O=P(O)(O)O [Phosphate salt, Phosphate salt of 4-(R)-(6,7-dihydro-5H-pyrrolo[1,2-c]imidazol-5-yl)-3-fluoro-benzonitrile (Form A)] | 0.0 |  | 0.1 | 0.1 |  | 0.3 | 0.8 |  | 0.0 | 0 | 0.2 | 0.9 |  |  | 
3 | N#Cc1ccc([C@H]2CCc3cncn32)c(F)c1.O=[N+]([O-])O [nitrate salt, Nitrate salt of 4-(R)-(6,7-dihydro-5H-pyrrolo[1,2-c]imidazol-5-yl)-3-fluoro-benzonitrile] | 0.0 | 0 | 0.1 | 0.2 | 0.2 | 0.2 | 0.2 |  |  |  |  |  | 0.0 |  | 
4 | N#Cc1ccc([C@H]2CCc3cncn32)c(F)c1 [Free base, 4-(R)-(6,7-Dihydro-5H-pyrrolo[1,2-c]imidazol-5-yl)-3-fluoro-benzonitrile] | 0.0 | 0.0 | 0.1 | 0.2 | 0.3 | 0.5 | 1.0 |  |  |  |  |  |  | > 50 | > 50
